{"source": "ChEMBL document CHEMBL5030535", "about": "“Conjugates Derived from Lapatinib Derivatives with Cancer Cell Stemness Inhibitors Effectively Reversed Drug Resistance in Triple-Negative Breast Cancer” (J Med Chem, 2021)", "key": {"[1]": {"biological_target": "T1, Epidermal growth factor receptor (Homo sapiens, UniProt P00533)", "T1 sequence (P00533 whole entry)": "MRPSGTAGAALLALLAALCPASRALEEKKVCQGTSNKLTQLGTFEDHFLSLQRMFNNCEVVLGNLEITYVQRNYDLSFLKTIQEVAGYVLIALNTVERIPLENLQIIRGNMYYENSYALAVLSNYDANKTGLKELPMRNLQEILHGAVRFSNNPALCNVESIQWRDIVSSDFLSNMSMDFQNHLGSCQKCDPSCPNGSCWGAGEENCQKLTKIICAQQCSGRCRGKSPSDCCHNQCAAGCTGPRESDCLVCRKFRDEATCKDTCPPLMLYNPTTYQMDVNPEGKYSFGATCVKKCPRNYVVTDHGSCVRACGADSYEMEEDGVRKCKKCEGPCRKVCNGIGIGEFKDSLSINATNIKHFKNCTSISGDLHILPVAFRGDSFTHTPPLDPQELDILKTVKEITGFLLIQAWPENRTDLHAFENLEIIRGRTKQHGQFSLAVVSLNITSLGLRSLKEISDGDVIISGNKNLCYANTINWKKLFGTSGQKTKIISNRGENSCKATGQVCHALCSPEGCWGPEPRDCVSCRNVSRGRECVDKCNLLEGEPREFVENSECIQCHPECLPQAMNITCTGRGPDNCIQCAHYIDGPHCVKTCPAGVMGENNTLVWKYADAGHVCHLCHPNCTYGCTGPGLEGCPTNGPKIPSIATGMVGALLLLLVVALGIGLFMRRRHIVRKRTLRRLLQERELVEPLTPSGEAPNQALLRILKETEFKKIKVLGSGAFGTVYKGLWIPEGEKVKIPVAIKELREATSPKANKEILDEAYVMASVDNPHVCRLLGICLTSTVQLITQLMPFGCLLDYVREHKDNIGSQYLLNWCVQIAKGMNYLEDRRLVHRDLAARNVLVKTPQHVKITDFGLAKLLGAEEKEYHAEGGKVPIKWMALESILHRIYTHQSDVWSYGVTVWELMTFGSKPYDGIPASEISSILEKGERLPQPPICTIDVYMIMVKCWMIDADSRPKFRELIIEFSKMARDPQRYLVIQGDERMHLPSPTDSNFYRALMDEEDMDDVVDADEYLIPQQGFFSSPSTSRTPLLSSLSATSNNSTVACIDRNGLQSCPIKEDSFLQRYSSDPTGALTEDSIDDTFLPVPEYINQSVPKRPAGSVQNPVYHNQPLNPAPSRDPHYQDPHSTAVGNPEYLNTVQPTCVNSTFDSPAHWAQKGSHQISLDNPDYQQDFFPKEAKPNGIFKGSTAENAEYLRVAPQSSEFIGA", "assay": "Inhibition of human EGFR in human drug-tolerant MDA-MB-231/lapatinib cells assessed as inhibition of phosphorylation Akt1/2/3 at Ser473 of measured after 24 hrs by Western blot analysis", "details": "dose 5-20 µM"}, "[2]": {"test_system": "MDA-MB-231", "assay": "Antiproliferative activity against human drug tolerant MDA-MB-231/lapatinib cells assessed as inhibition of cell growth in measured after 72 hrs by MTT assay", "type": "functional, cell-based", "details": "MDA-MB-231, 72 h"}, "[3]": {"biological_target": "T1, Epidermal growth factor receptor", "assay": "Inhibition of human EGFR in human MDA-MB-231 cells assessed as inhibition of phosphorylation ERK1/2 at T202/Y204 of measured after 24 hrs by Western blot analysis", "type": "cell-based", "details": "dose 5-20 µM"}, "[4]": {"biological_target": "T1, Epidermal growth factor receptor", "assay": "Inhibition of human EGFR in human MDA-MB-231 cells assessed as inhibition of phosphorylation Akt1/2/3 at Ser473 of measured after 24 hrs by Western blot analysis", "type": "cell-based", "details": "dose 5-20 µM"}, "[5]": {"assay": "Resistant factor, ratio of IC50 for antiproliferative activity against drug-tolerant human MDA-MB-231 cells to IC50 for human MDA-MB-231 cells", "type": "functional"}, "[6]": {"test_system": "HUVEC", "assay": "Antiproliferative activity against human HUVEC cells assessed as inhibition of cell growth in measured after 72 hrs by MTT assay", "type": "cell-based"}, "[7]": {"test_system": "MDA-MB-231", "assay": "Inhibition of Wnt/beta-Catenin signaling in drug-tolerant human MDA-MB-231/lapatinib cells assessed as reduction in MMP7 mRNA level at 20 uM incubated for 24 hrs by qRT-PCR analysis", "type": "tissue-based"}, "[8]": {"test_system": "MDA-MB-231", "assay": "Inhibition of cell stemness in human drug-tolerant MDA-MB-231/lapatinib cells assessed as inhibition of CD44+/CD24- expression at 20 uM after 24 hrs by flow cytometry analysis", "type": "functional"}, "[9]": {"test_system": "MDA-MB-231", "assay": "Cell cycle arrest in human drug-tolerant MDA-MB-231/lapatinib cells assessed as accumulation at G0-G1phase at 20 uM incubated for 24 hrs by PI staining based flow cytometry", "type": "functional"}, "[10]": {"test_system": "MDA-MB-231", "assay": "Inhibition of cell stemness in drug-tolerant human MDA-MB-231/lapatinib cells assessed as inhibition of Jagged expression at 20 uM after 24 hrs by flow cytometry", "type": "functional, cell-based"}, "[11]": {"test_system": "MDA-MB-231", "assay": "Inhibition of cell stemness in human drug-tolerant MDA-MB-231/lapatinib cells assessed as inhibition of Kif4 expression at 20 uM after 24 hrs by qRT-PCR analysis", "type": "functional, cell-based"}, "[12]": {"test_system": "MCF7", "assay": "Antiproliferative activity against human MCF7 cells assessed as inhibition of cell growth measured after 72 hrs by MTT assay", "type": "functional, cell-based", "details": "MCF7, 72 h"}, "[13]": {"test_system": "MDA-MB-231", "assay": "Antiproliferative activity against drug-tolerant human MDA-MB-231/lapatinib cells assessed as CD44-positive cells measured after 24 hrs by MTT assay", "type": "functional, cell-based", "details": "MDA-MB-231, 24 h"}, "[14]": {"test_system": "MDA-MB-231", "assay": "Inhibition of cell stemness in human drug-tolerant MDA-MB-231/lapatinib cells assessed as inhibition of OCT4 expression at 20 uM after 24 hrs by qRT-PCR analysis", "type": "functional, cell-based"}, "[15]": {"test_system": "MDA-MB-231", "assay": "Induction apoptosis in MDA-MB-231/ lapatinib cells assessed as apoptotic cells at 20 uM measured after 24 hrs by propidium iodide staining based flow cytometric analysis", "type": "functional, cell-based", "details": "Homo sapiens"}, "[16]": {"test_system": "MDA-MB-231", "assay": "Antiproliferative activity against human MDA-MB-231 cells assessed as inhibition of cell growth measured after 72 hrs by MTT assay", "type": "functional, cell-based", "details": "MDA-MB-231, 72 h"}, "[17]": {"test_system": "MDA-MB-231", "assay": "Antiproliferative activity against drug-tolerant human MDA-MB-231/lapatinib cells assessed as CD44+/CD24- cells measured at 20 uM after 24 hrs by MTT assay", "type": "functional"}, "[18]": {"test_system": "MDA-MB-231", "assay": "Inhibition of colony formation in human drug-tolerant MDA-MB-231/lapatinib cells at 5 uM measured after 24 hrs", "type": "functional"}, "[19]": {"biological_target": "T1, Epidermal growth factor receptor", "assay": "Inhibition of exogenous EGFR (unknown origin)"}, "[20]": {"test_system": "MDA-MB-231", "assay": "Inhibition of Wnt/beta-Catenin signaling in drug-tolerant human MDA-MB-231/lapatinib cells assessed as reduction in p-GSK3beta level at 20 uM incubated for 24 hrs by Western blot analysis"}, "[21]": {"test_system": "MDA-MB-231", "assay": "Inhibition of Wnt/beta-Catenin signaling in drug-tolerant human MDA-MB-231/lapatinib cells assessed as reduction in beta-catenin level at 20 uM incubated for 24 hrs by Western blot analysis"}, "[22]": {"test_system": "MDA-MB-231", "assay": "Inhibition of cell stemness in human drug-tolerant MDA-MB-231/lapatinib cells assessed as inhibition of SOX-2 expression at 20 uM after 24 hrs by qRT-PCR analysis", "type": "functional, cell-based"}, "[23]": {"test_system": "MDA-MB-231", "assay": "Inhibition of Wnt/beta-Catenin signaling in drug-tolerant human MDA-MB-231/lapatinib cells assessed as increase in nuclear expression of p-beta-catenin level at 20 uM incubated for 24 hrs by Western blot analysis"}, "[24]": {"biological_target": "T2, Aldehyde dehydrogenase 1A1 (Homo sapiens, UniProt P00352)", "T2 sequence (P00352 whole entry)": "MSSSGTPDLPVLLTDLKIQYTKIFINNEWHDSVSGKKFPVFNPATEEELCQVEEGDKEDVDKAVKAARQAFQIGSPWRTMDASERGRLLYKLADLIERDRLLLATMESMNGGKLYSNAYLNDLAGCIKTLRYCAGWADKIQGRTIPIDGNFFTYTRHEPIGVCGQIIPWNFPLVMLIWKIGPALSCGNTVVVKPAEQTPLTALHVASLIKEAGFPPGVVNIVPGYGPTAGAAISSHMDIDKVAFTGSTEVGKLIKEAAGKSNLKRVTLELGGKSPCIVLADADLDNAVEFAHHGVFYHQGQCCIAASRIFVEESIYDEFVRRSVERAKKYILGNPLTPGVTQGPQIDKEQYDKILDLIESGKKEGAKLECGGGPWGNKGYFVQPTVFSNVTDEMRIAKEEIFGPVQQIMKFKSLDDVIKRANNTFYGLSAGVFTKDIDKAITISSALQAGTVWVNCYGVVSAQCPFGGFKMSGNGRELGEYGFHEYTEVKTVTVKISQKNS", "assay": "Inhibition of ALDH1A1 in human drug-tolerant MDA-MB-231/lapatinib cells assessed as after 24 hrs"}, "[25]": {"assay": "Octanol/water partition coefficient, log P of the compound by shake flask method based thermodynamic solubility assay", "type": "physicochemical"}, "[26]": {"test_system": "MDA-MB-231", "assay": "Inhibition of cell stemness in drug-tolerant human MDA-MB-231/lapatinib cells assessed as inhibition of Notch expression at 20 uM after 24 hrs by flow cytometry", "type": "functional, cell-based"}, "[27]": {"test_system": "MDA-MB-231", "assay": "Induction of apoptosis in drug-tolerant human MDA-MB-231 cells/lapatinib cells assessed as apoptotic rate at 20 uM measured after 24 hrs by flow cytometry", "type": "functional"}, "[28]": {"test_system": "MDA-MB-231", "assay": "Inhibition of cell stemness in drug-tolerant human MDA-MB-231/lapatinib cells assessed as inhibition of ALDH1A1 expression at 20 uM after 24 hrs by flow cytometry", "type": "functional"}, "[29]": {"biological_target": "T1, Epidermal growth factor receptor", "assay": "Inhibition of human EGFR in human drug-tolerant MDA-MB-231/lapatinib cells assessed as inhibition of phosphorylation ERK1/2 at T202/Y204 of measured after 24 hrs by Western blot analysis", "details": "dose 5-20 µM"}, "[30]": {"biological_target": "T1, Epidermal growth factor receptor", "assay": "Inhibition of human EGFR phosphorylation in human MDA-MB-231 cells measured after 24 hrs by Western blot analysis", "type": "cell-based", "details": "dose 5-20 µM"}, "[31]": {"test_system": "MDA-MB-231", "assay": "Inhibition of Wnt/beta-Catenin signaling in drug-tolerant human MDA-MB-231/lapatinib cells assessed as reduction in c-Myc mRNA level at 20 uM incubated for 24 hrs by qRT-PCR analysis"}, "[32]": {"test_system": "MDA-MB-231", "assay": "Inhibition of Wnt/beta-Catenin signaling in drug-tolerant human MDA-MB-231/lapatinib cells assessed as reduction in S100A4 mRNA level at 20 uM incubated for 24 hrs by qRT-PCR analysis"}, "[33]": {"biological_target": "T1, Epidermal growth factor receptor", "assay": "Inhibition of human EGFR phosphorylation in human drug-tolerant MDA-MB-231/lapatinib cells measured after 24 hrs by Western blot analysis", "details": "dose 5-20 µM"}, "[34]": {"test_system": "MDA-MB-231", "assay": "Inhibition of Wnt/beta-Catenin signaling in drug-tolerant human MDA-MB-231/lapatinib cells assessed as reduction in cyclin D1 mRNA level at 20 uM incubated for 24 hrs by qRT-PCR analysis"}, "[35]": {"test_system": "MDA-MB-231", "assay": "Cell cycle arrest in human MDA-MB-231 cells assessed as accumulation at G0-G1phase at 20 uM incubated for 24 hrs by PI staining based flow cytometry", "type": "functional"}, "[36]": {"test_system": "MDA-MB-231", "assay": "Inhibition of cell invasion in human MDA-MB-231/lapatinib cells at 20 uM", "type": "functional"}}, "note": "Activity calls are given as the source filed them. No cut-off for these calls is given here.", "data": [{"smiles": "CC(OC(=O)CCCC(=O)N(CCS(C)(=O)=O)Cc1ccc(-c2ccc3ncnc(Nc4ccc(OCc5cccc(F)c5)c(Cl)c4)c3c2)o1)c1cc2c(o1)C(=O)c1ccccc1C2=O", "note": "(stereo unspecified)", "values": [{"measurement": "inhibition", "setting": "[1]", "value": "Dose-Dependent Effect"}, {"measurement": "IC50", "setting": "[2]", "value": 1690, "unit": "nM"}, {"measurement": "inhibition", "setting": "[3]", "value": "Active"}, {"measurement": "inhibition", "setting": "[4]", "value": "Active"}, {"measurement": "Ratio IC50", "setting": "[5]", "value": 0.82}, {"measurement": "IC50", "setting": "[6]", "value": 63300, "unit": "nM"}, {"measurement": "inhibition", "setting": "[7]", "value": "Active"}, {"measurement": "inhibition at 20 µM", "setting": "[8]", "value": 2.03, "unit": "%"}, {"measurement": "Activity", "setting": "[9]", "value": "Active"}, {"measurement": "inhibition", "setting": "[10]", "value": "Active"}, {"measurement": "inhibition", "setting": "[11]", "value": "Active"}, {"measurement": "IC50", "setting": "[12]", "value": 3860, "unit": "nM"}, {"measurement": "IC50", "setting": "[13]", "value": 2030, "unit": "nM"}, {"measurement": "inhibition", "setting": "[14]", "value": "Active"}, {"measurement": "Activity", "setting": "[15]", "value": "Active"}, {"measurement": "IC50", "setting": "[16]", "value": 2040, "unit": "nM"}, {"measurement": "inhibition at 20 µM", "setting": "[17]", "value": 52.2, "unit": "%"}, {"measurement": "inhibition at 5 µM", "setting": "[18]", "value": 10.9, "unit": "%"}, {"measurement": "IC50", "setting": "[19]", "value": 7.36, "unit": "nM"}, {"measurement": "inhibition", "setting": "[20]", "value": "Active"}, {"measurement": "inhibition", "setting": "[21]", "value": "Active"}, {"measurement": "inhibition", "setting": "[22]", "value": "Active"}, {"measurement": "inhibition", "setting": "[23]", "value": "Active"}, {"measurement": "IC50", "setting": "[24]", "value": 135, "unit": "nM"}, {"measurement": "logP", "setting": "[25]", "value": 2.15}, {"measurement": "inhibition", "setting": "[26]", "value": "Active"}, {"measurement": "Activity", "setting": "[27]", "value": "Active"}, {"measurement": "inhibition at 20 µM", "setting": "[28]", "value": 71.2, "unit": "%"}, {"measurement": "inhibition", "setting": "[29]", "value": "Dose-Dependent Effect"}, {"measurement": "inhibition", "setting": "[30]", "value": "Dose-Dependent Effect"}, {"measurement": "inhibition", "setting": "[31]", "value": "Active"}, {"measurement": "inhibition", "setting": "[32]", "value": "Active"}, {"measurement": "inhibition", "setting": "[33]", "value": "Dose-Dependent Effect"}, {"measurement": "inhibition", "setting": "[34]", "value": "Active"}, {"measurement": "Activity", "setting": "[35]", "value": "Active"}, {"measurement": "inhibition at 20 µM", "setting": "[36]", "value": 77.3, "unit": "%"}]}]}
